Assay [1] deals with T52 Hufos invasive tumour model. Put plainly: T52 Hufos invasive tumour three-dimensional model, area of cell cover. Type of assay: cell-based, mouse. The following applies: 10^−7M RA, 10 day culture period (FIG. 7).
Source text: Hufos invasive tumour model over a 10 day culture period. In summary the in vitro models were developed using contracted collagen gels which supported a layer of mouse tumour cells or corresponding “normal” epithelial cells. The collagen gel was comprised of type I collagen, isolated from rat tail tendon, contracted using primary mouse fibroblasts, which were isolated from the dermis of newborn (or embryonic) mice. The collagen gels contracted to a size approximately 1.5 cm in diameter and were seeded with a single cell suspension of mouse tumour or normal epithelial cells. The models were initially maintained as submerged cultures, which allowed the cells to adhere to the collagen gel and grow. The models may thereafter be raised to the air-liquid interface (semi-submerged culture) to promote cell differentiation and formation of tissue. […] Test agents can be added to the model system at different stages of tumour development. The models are directly imaged as whole mounts by fluorescent labelling of cells either with vital dyes or genetic markers or after fixation and staining. In more detail, the collagen gel, described below, which supports the layer of epithelial cells (BalbMK (Weissman and Aaronson 1985), SP-1 (Strickland et al. 1988) or [MUT] Hufos (Greenhalgh and Yuspa 1988) in the prototype models), was contracted using dermal fibroblasts isolated from newborn mouse skin. […]
Assay [2] concerns SP-1 papilloma model. Put plainly: SP-1 papilloma three-dimensional model, area of cell cover (propidium iodide stained whole mounts). Type of assay: cell-based, mouse. The following applies: SP-1 model. The procedure:
In summary the in vitro models were developed using contracted collagen gels which supported a layer of mouse tumour cells or corresponding “normal” epithelial cells. The collagen gel was comprised of type I collagen, isolated from rat tail tendon, contracted using primary mouse fibroblasts, which were isolated from the dermis of newborn (or embryonic) mice. The collagen gels contracted to a size approximately 1.5 cm in diameter and were seeded with a single cell suspension of mouse tumour or normal epithelial cells. The models were initially maintained as submerged cultures, which allowed the cells to adhere to the collagen gel and grow. The models may thereafter be raised to the air-liquid interface (semi-submerged culture) to promote cell differentiation and formation of tissue. […] Test agents can be added to the model system at different stages of tumour development. The models are directly imaged as whole mounts by fluorescent labelling of cells either with vital dyes or genetic markers or after fixation and staining.
In more detail, the collagen gel, described below, which supports the layer of epithelial cells (BalbMK (Weissman and Aaronson 1985), SP-1 (Strickland et al. 1988) or T52 Hufos (Greenhalgh and Yuspa 1988) in the prototype models), was contracted using dermal fibroblasts isolated from newborn mouse skin. The epidermis and dermis were separated from each other following an overnight digestion with trypsin at 4° C. The dermal tissue washed in sterile PBS, dissected-into very small pieces, suspended in 3-5 ml of MEM culture media and the slurry seeded into a 75 cm^2 plastic culture flask. This tissue was cultured without disturbance until the tissue pieces had adhered to the plastic flask. Fresh MEM (Minimum Essential Medium) supplemented with 10% foetal calf serum, 1% L-glutamine, 100 U/ml penicillin and 100 μg/ml streptomycin was added to the flask at this time. Fibroblast cell outgrowth from the dermal tissue explants was observed after several days. The excess tissue was removed and the fibroblast cells cultured to confluence. […]

The subject of the next assay is SP-1 cells. Put plainly: Growth curves of SP-1 cells in monolayer culture. It is filed as cell-based. Particulars: Mus musculus, 240 h; SP-1 monolayer culture, 10 days in culture, 10^−7M RA; read-out: inhibition of the log phase of growth.
Assay [3] concerns SP-1 papilloma model. Put plainly: SP-1 papilloma model, cell killing (H & E stained paraffin sections). It is filed as cell-based, mouse. The following applies: SP-1 model. The procedure: (§1) FIG. 10: Treatment of models with the anti-tumour drug cisplatin. H & E stained paraffin sections (×400 magnification) of SP-1 “papilloma” model (A, C and E) and T52-Hufos “invasive tumour” model (B, D and F). Shown are (A and B) untreated models (without cisplatin), (C and D) models treated with 50 μM cisplatin and (E and F) models treated with 500 μM cisplatin.
(§2) Cell models were harvested at appropriate time intervals and fixed overnight, at room temperature in a solution of buffered formalin. A small piece of the model was removed and embedded in paraffin wax. Sections were cut and mounted onto glass slides and stained with haematoxylin and eosin (H & E stain). The remainder of the model washed in PBS (phosphate buffered saline), permeabilised with Triton X-100 and stained with propidium iodide (PI). The washed models were stored thereafter in the dark at 4° C. and maintained their fluorescence for several weeks. Whole mounts of the PI stained models were analysed using fluorescent microscopy through coverslips applied directly to the surface of the tissue.

For assay [4], the system named is T52 Hufos invasive tumour model. Put plainly: T52 Hufos invasive tumour model, cell killing (H & E stained paraffin sections). Type of assay: cell-based, mouse. The procedure: as §1, §2
Setting [5] is: higher cisplatin concentration (500 μM, FIG. 10).
The mark [6] stands for this setting: lower cisplatin concentration (50 μM, FIG. 10).

In the case of `CC1=C(/C=C/C(C)=C/C=C/C(C)=C/C(=O)O)C(C)(C)CCC1` [RA, All-trans-Retinoic acid], the “effect on area of cell cover” value is “no effect” in assay [1]; “marked effect” with SP-1 papilloma model [2] (10^−6M RA (highest concentration studied), day 8 and day 10 (FIG. 6)); “modest effect with less cell cover than the corresponding untreated controls” in the assay on SP-1 papilloma model [2] (10^−7M RA, vs untreated controls, time course to day 12 (FIG. 5)). Further, the “degree of growth inhibition, concentration dependence” value in the assay with SP-1 papilloma model [2] (RA at 10^−6M, 10^−7M and 10^−8M (FIG. 6)) is given as “concentration dependent”. For the same molecule, the inhibition at 0.1 µM in the assay on SP-1 cells worked out at 46%.
For the molecule `N.N.[Cl][Pt][Cl]` [cisplatin], the cell killing result in the assay with SP-1 papilloma model [3] (setting [5]) is reported as “extensive cell death”; with SP-1 papilloma model [3] (setting [6]), “evidence of cell killing”; in assay [4] (setting [5]), “extensive cell death”; in assay [4] (setting [6]), “evidence of cell killing”.

A word on the inhibition: it is the change of the read-out against control, counted positive when it falls.

For the origin of these results see patent publication US20070218509A1, “Murine Living Tissue Model & UsesTthereof” (priority 2003, published 2007).
